Assay results taken from US9382197B2, “Substituted hydroxamic acids and uses thereof” (Millennium Pharmaceuticals, Inc., priority 2010, dated 2016).
pIC50: −log10 of the molar value.

molecular target: T1, purified human HDAC6 (Homo sapiens, UniProt Q9UBN7); test: HDAC6 Enzyme Assay; assay type: biochemical; settings: bin: greater than 500 nM and less than 1 μM (lower bound in nM, upper bound in μM)
T1 construct: purchased BPS Bioscience 5006
T1 sequence (Q9UBN7 1-1215): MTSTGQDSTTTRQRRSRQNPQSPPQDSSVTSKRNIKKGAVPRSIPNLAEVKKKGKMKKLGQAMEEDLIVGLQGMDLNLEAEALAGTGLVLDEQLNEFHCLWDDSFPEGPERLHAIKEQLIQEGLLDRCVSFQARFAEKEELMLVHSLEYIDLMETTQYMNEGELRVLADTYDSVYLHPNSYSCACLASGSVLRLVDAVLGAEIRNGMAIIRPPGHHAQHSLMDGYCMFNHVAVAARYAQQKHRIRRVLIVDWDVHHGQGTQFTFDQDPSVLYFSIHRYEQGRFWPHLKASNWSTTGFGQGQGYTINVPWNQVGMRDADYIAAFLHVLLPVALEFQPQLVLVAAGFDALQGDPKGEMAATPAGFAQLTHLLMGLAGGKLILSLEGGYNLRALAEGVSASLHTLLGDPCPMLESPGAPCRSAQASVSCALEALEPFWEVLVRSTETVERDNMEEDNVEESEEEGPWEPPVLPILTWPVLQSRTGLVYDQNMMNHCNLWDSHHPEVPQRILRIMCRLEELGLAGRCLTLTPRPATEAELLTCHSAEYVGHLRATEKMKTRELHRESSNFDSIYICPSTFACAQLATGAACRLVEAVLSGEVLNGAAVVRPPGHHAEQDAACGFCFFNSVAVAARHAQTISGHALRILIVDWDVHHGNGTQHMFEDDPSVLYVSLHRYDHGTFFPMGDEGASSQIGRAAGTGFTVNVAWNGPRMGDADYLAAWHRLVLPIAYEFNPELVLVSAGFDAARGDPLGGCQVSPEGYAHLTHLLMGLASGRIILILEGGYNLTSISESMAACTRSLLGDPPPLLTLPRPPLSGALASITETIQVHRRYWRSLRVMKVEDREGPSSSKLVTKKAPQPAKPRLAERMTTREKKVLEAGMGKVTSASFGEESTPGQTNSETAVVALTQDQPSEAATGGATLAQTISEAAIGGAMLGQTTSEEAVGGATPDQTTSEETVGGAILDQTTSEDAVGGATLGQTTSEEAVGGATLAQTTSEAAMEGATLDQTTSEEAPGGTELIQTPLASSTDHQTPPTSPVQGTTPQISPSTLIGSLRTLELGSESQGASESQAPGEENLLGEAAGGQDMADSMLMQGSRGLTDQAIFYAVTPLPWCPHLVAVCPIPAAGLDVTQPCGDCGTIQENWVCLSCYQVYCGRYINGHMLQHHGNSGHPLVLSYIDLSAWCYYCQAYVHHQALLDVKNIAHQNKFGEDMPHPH
In short: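 Deacetylated product quantified after trypsin digestion as released AMC (340/460 nm), following a 1 h, 30 °C reaction of human HDAC6 with Ac-RGK(Ac)-AMC peptide, quenched by trichostatin A. IC50 derived from DMSO-normalized curves.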

Row | IC50 | Compound
1 | 500 to 1000 nM | CC(C)(C)C(NC(=O)c1cc(F)cc(F)c1)c1ccc(C(=O)NO)cc1 (stereo not shown) [Compound I-251, 3,5-difluoro-N-(1-{4-[(hydroxyamino)carbonyl]phenyl}-2,2-dimethylpropyl)benzamide]
2 | 500 to 1000 nM | CC(NC(=O)c1ccc(C(C)(C)C)cc1)c1cccc(C(=O)NO)c1 (stereo not shown) [Compound I-268, 3-{1-[(4-tert-butylbenzoyl)amino]ethyl}-N-hydroxybenzamide]

Continued, compound first:

Row | Compound | IC50
3 | O=C(NO)c1ccc([C@@H](NC(=O)C23CC4CC(CC(C4)C2)C3)c2ccccc2)cc1 [Compound I-259, N-[(S)-{4-[(hydroxyamino)carbonyl]phenyl}(phenyl)methyl]adamantane-1-carboxamide] | 500 to 1000 nM
4 | C[C@@H](NC(=O)c1cccn1C)c1cccc(C(=O)NO)c1 [Compound I-271, N-((1R)-1-{3-[(hydroxyamino)carbonyl]phenyl}ethyl)-1-methyl-1H-pyrrole-2-carboxamide] | 500 to 1000 nM
5 | CC(NS(=O)(=O)c1ccc2nsnc2c1)c1ccc(C(=O)NO)cc1 (stereo not shown) [Compound I-272, 4-{1-[(2,1,3-benzothiadiazol-5-ylsulfonyl)amino]ethyl}-N-hydroxybenzamide] | 500 to 1000 nM
6 | C[C@H](NC(=O)C1(C)CCCCC1)c1ccc(C(=O)NO)cc1 [Compound I-273, N-hydroxy-4-((1S)-1-{[(1-methylcyclohexyl)carbonyl]amino}ethyl)benzamide] | 500 to 1000 nM

same assay, conditions: bin: greater than 1 μM

Row | pIC50 | Compound
7 | < 6.00 | CC(NC(=O)Cc1ccc2c(c1)OCO2)c1ccc(C(=O)NO)cc1 (stereo not shown) [Compound I-280, 4-{1-[(1,3-benzodioxol-5-ylacetyl)amino]ethyl}-N-hydroxybenzamide]
8 | < 6.00 | CC(C)c1ccc(CC(=O)NC(C)c2ccc(C(=O)NO)cc2)cc1 (stereo not shown) [Compound I-285, N-hydroxy-4-(1-{[(4-isopropylphenyl)acetyl]amino}ethyl)benzamide]

The remaining lines, values behind:

Row | Compound | pIC50
9 | Cc1c(C(=O)NC(C)c2cccc(C(=O)NO)c2)cnn1-c1ccccc1 (stereo not shown) [Compound I-257, N-(1-{3-[(hydroxyamino)carbonyl]phenyl}ethyl)-5-methyl-1-phenyl-1H-pyrazole-4-carboxamide] | < 6.00
10 | CC(NC(=O)c1cccn1C)c1cccc(C(=O)NO)c1 (stereo not shown) [Compound I-263, N-(1-{3-[(hydroxyamino)carbonyl]phenyl}ethyl)-1-methyl-1H-pyrrole-2-carboxamide] | < 6.00
11 | CC(C)(C)C(NC(=O)C1CCCCC1)c1ccc(C(=O)NO)cc1 (stereo not shown) [Compound I-265, 4-{1-[(cyclohexylcarbonyl)amino]-2,2-dimethylpropyl}-N-hydroxybenzamide] | < 6.00
12 | C[C@@H](NC(=O)C1(C)CCCCC1)c1cccc(C(=O)NO)c1 [Compound I-283, N-hydroxy-3-((1R)-1-{[(1-methylcyclohexyl)carbonyl]amino}ethyl)benzamide] | < 6.00

same assay, conditions: purified human HDAC6, substrate Ac-Arg-Gly-Lys(Ac)-AMC, 1 hour at 30° C.; reported as bins

Row | pIC50 | Compound
13 | > 7.00 | COc1ccc(C)cc1NC(=O)NC(C)c1ccc(C(=O)NO)cc1 (stereo not shown) [Compound I-253, N-hydroxy-4-[1-({[(2-methoxy-5-methylphenyl)amino]carbonyl}amino)ethyl]benzamide]
14 | > 7.00 | CC(NC(=O)Nc1c(F)cccc1F)c1ccc(C(=O)NO)cc1 (stereo not shown) [Compound I-261, 4-[1-({[(2,6-difluorophenyl)amino]carbonyl}amino)ethyl]-N-hydroxybenzamide]
15 | > 7.00 | Cc1ccc(C2(C(=O)NC(C)c3ccc(C(=O)NO)cc3)CC2)cc1 (stereo not shown) [Compound I-264, N-hydroxy-4-[1-({[1-(4-methylphenyl)cyclopropyl]carbonyl}amino)ethyl]benzamide]
16 | > 7.00 | CC(NC(=O)c1ccccc1Cl)c1ccc(C(=O)NO)cc1 (stereo not shown) [Compound I-269, 2-chloro-N-(1-{4-[(hydroxyamino)carbonyl]phenyl}ethyl)benzamide]
17 | > 7.00 | CC(NC(=O)Nc1ccc(F)c(F)c1)c1ccc(C(=O)NO)cc1 (stereo not shown) [Compound I-275, 4-[1-({[(3,4-difluorophenyl)amino]carbonyl}amino)ethyl]-N-hydroxybenzamide]
18 | 6.30 to 7.00 | Cc1ccc(CNC(=O)NC(C)c2ccc(C(=O)NO)cc2)cc1 (stereo not shown) [Compound I-277, N-hydroxy-4-[1-({[(4-methylbenzyl)amino]carbonyl}amino)ethyl]benzamide]
19 | > 7.00 | Cc1nc(C(=O)NC(C)c2ccc(C(=O)NO)cc2)cs1 (stereo not shown) [Compound I-278, N-(1-{4-[(hydroxyamino)carbonyl]phenyl}ethyl)-2-methyl-1,3-thiazole-4-carboxamide]
20 | > 7.00 | CC(C)Cc1cc(C(=O)NC(C)c2ccc(C(=O)NO)cc2)no1 (stereo not shown) [Compound I-286, N-(1-{4-[(hydroxyamino)carbonyl]phenyl}ethyl)-5-isobutylisoxazole-3-carboxamide]
21 | > 7.00 | Cc1cc(C(=O)NC(C)c2ccc(C(=O)NO)cc2)n(C)n1 (stereo not shown) [Compound I-288, N-(1-{4-[(hydroxyamino)carbonyl]phenyl}ethyl)-1,3-dimethyl-1H-pyrazole-5-carboxamide]

The next lines start with the compound.

Row | Compound | pIC50
22 | Cc1cc(C(=O)NC(c2ccc(C(=O)NO)cc2)C(C)C)c(C)o1 (stereo not shown) [Compound I-252, N-(1-{4-[(hydroxyamino)carbonyl]phenyl}-2-methylpropyl)-2,5-dimethyl-3-furamide] | 6.30 to 7.00
23 | CC(C)C(NC(=O)C1CCCC1)c1ccc(C(=O)NO)cc1 (stereo not shown) [Compound I-255, 4-{1-[(cyclopentylcarbonyl)amino]-2-methylpropyl}-N-hydroxybenzamide] | 6.30 to 7.00
24 | CC(C)C(NC(=O)C1(c2ccccc2)CCCC1)c1ccc(C(=O)NO)cc1 (stereo not shown) [Compound I-258, N-hydroxy-4-(2-methyl-1-{[(1-phenylcyclopentyl)carbonyl]amino}propyl)benzamide] | 6.30 to 7.00
25 | Cc1cc(C(=O)NC(c2ccc(C(=O)NO)cc2)C(C)(C)C)nn1C (stereo not shown) [Compound I-260, N-(1-{4-[(hydroxyamino)carbonyl]phenyl}-2,2-dimethylpropyl)-1,5-dimethyl-1H-pyrazole-3-carboxamide] | 6.30 to 7.00
26 | Cc1cc(C)c(C(=O)NC(c2ccc(C(=O)NO)cc2)C(C)(C)C)[nH]1 (stereo not shown) [Compound I-262, N-(1-{4-[(hydroxyamino)carbonyl]phenyl}-2,2-dimethylpropyl)-3,5-dimethyl-1H-pyrrole-2-carboxamide] | 6.30 to 7.00
27 | Cc1ccc(S(=O)(=O)NC(C)c2ccc(C(=O)NO)cc2)cc1 (stereo not shown) [Compound I-266, N-hydroxy-4-(1-{[(4-methylphenyl)sulfonyl]amino}ethyl)benzamide] | 6.30 to 7.00
28 | CC(NC(=O)c1cccs1)c1cccc(C(=O)NO)c1 (stereo not shown) [Compound I-267, N-(1-{3-[(hydroxyamino)carbonyl]phenyl}ethyl)thiophene-2-carboxamide] | 6.30 to 7.00
29 | CC(C)(C)C(NC(=O)c1cc2cc(Cl)ccc2o1)c1ccc(C(=O)NO)cc1 (stereo not shown) [Compound I-270, 5-chloro-N-(1-{4-[(hydroxyamino)carbonyl]phenyl}-2,2-dimethylpropyl)-1-benzofuran-2-carboxamide] | 6.30 to 7.00
30 | CCC[C@@H](NC(=O)c1ccc(-c2ccccc2)cc1)c1ccc(C(=O)NO)cc1 [Compound I-274, N-((1R)-1-{4-[(hydroxyamino)carbonyl]phenyl}butyl)biphenyl-4-carboxamide] | > 7.00
31 | CC(C)[C@H](NC(=O)c1cc2ccccc2[nH]1)c1ccc(C(=O)NO)cc1 [Compound I-279, N-((1S)-1-{4-[(hydroxyamino)carbonyl]phenyl}-2-methylpropyl)-1H-indole-2-carboxamide] | 6.30 to 7.00
32 | CCC[C@@H](NC(=O)c1cccn1C)c1ccc(C(=O)NO)cc1 [Compound I-281, N-((1R)-1-{4-[(hydroxyamino)carbonyl]phenyl}butyl)-1-methyl-1H-pyrrole-2-carboxamide] | > 7.00
33 | CC(=O)Nc1cc(NC(C)=O)cc(C(=O)NC(c2ccc(C(=O)NO)cc2)C(C)C)c1 (stereo not shown) [Compound I-282, 3,5-bis(acetylamino)-N-(1-{4-[(hydroxyamino)carbonyl]phenyl}-2-methylpropyl)benzamide] | > 7.00
34 | CC(C)[C@@H](NC(=O)C(C)(C)C)c1ccc(C(=O)NO)cc1 [Compound I-287, 4-{(1R)-1-[(2,2-dimethylpropanoyl)amino]-2-methylpropyl}-N-hydroxybenzamide] | > 7.00
